Laboratory results from patent US20200000840A1, “USE OF CYCLODEXTRINS TO REDUCE ENDOCYTOSIS IN MALIGNANT AND NEURODEGENERATIVE DISORDERS” (priority 2016, published 2020).
Values joined by “and” are separate entries in the source; they are usually repeats but may differ in a detail not shown here. Equal values may be shown once. Read-outs that look alike come from different tables or passages of the source. Marks after values point to notes of the source that are not given here.

Tests used:
rats [1] = settings: […] daily; cited from earlier work
human keratinocytes = settings: cited from earlier work
Ab1-40/42 = settings: rats, stereotactical injection into the hippocampus; cited from earlier work
BBB = settings: cited from earlier work; for Transport across BBB: 2 h, 1 mM
rats [2] = settings: cited from earlier work
rats [3] = settings: rat; cited from earlier work
transferrin endocytosis = settings: 10 mM; cited from earlier work
[4] = rats, rabbits, dogs, and humans; cited from earlier work
human erythrocytes = settings: human erythrocytes; cited from earlier work
[5] = in vivo; cited from earlier work
[6] = system: human epithelial colorectal adenocarcinoma (Caco-2) cells; settings: cited from earlier work
MCF-7 cells = experiment: Wound healing / gap closure migration assay (CytoSelect CBA-120); type: cell-based, human; settings: treated 2 hours
Procedure: (§1) Published results have shown that β-CD inhibits human MDA-MB 231 cell migration (Guerra et al. 2016). This inhibition was attributed to the ability of β-CD to “deplete cholesterol”. β-CD, however, depletes also phospholipids. […] Cells were cultured in 24-well culture plates (Cytoselect CBA-120, 0.9 mm wound healing/gap closure migration assay) for 24 hours with wound healing insert in place. […] Protocol: Warm up the 24-well plate (CBA-120, Cell BioLabs Inc.) with 0.9 mm CytoSelect Wound Healing Inserts at room temperature for 10 minutes. Using sterile forceps, orient the desired number of inserts in the plate wells with their “wound field” aligned in the same direction. Create a cell suspension containing 0.5-1.0×10^6 cells/ml in media containing 10% fetal bovine serum (FBS). Add 500 μL of cell suspension to each well by carefully inserting the pipette tip through the open end at the top of the insert. For optimal cell dispersion, add 250 μL of cell suspension to either side of the open ends at the top of the insert. Incubate cells in a cell culture incubator for 12-24 hours. Carefully remove the insert from the well to begin the wound healing assay. Use sterile forceps to grab and lift the insert slowly from the plate well. Slowly aspirate and discard the media from the wells. Wash wells with media to remove dead cells and debris. Finally, add media to wells to keep cells hydrated. Repeat wash if wells still have debris or unattached cells. When washing is complete, add media with FBS and/or compounds to continue cell culture and wound healing process. Agents that inhibit or stimulate cell migration can be added directly to the wells. Incubate cells in a cell culture incubator (2 hours) and then wash cells with PBS and then add fresh media without compounds. Incubate 12-24 hours before wash and fixing. Remove the fixation solution and add 400 μL of Cell Stain Solution to each well. Allow the stain to incubate with the cells for 15 minutes at room temperature. Aspirate and discard the solution. Carefully wash each stained well 3× with deionized water. Discard washes and allow cells to dry at room temperature. Cells that migrated into the wounded area or protruded from the border of the wound were visualized and photographed under an inverted microscope. Determine the surface area of the defined wound area: Total Surface Area=0.9 mm x length. Determine the surface area of the migrated cells into the wound area: Migrated Cell Surface Area=length of cell migration (mm)×2 x length. Percent Closure (%)=Migrated Cell Surface Area/Total Surface Area x 100.

MDA-MB-231 cells = experiment: as above; type: cell-based, human; settings: treated 2 hours
Procedure: as §1

[7] = Table 2; cited from earlier work
[8] = system: MDA-MB 231 and MCF-7 human breast epithelial cell lines; experiment: Wound healing assay, overall statements for both cell lines; type: cell-based
Procedure: as §1

α-synuclein = settings: mice, neuronal cell body and synapses; cited from earlier work
urothelial cancer cells = settings: cited from earlier work
MCF7 BC cells = settings: cited from earlier work
[9] = system: H7 Lewis lung cancer cell lines; settings: three H7 Lewis lung cancer cell lines; cited from earlier work
[10] = target: BC resistance protein (BCRP/ABCG2) (Homo sapiens, UniProt Q9UNQ0); settings: cited from earlier work
[11] = system: RTK-[PIP2]-PI3K-[PIP3]-AKT signaling in HeLa cells; settings: cited from earlier work
mouse model of BC = settings: cited from earlier work
[12] = system: H7-O Lewis lung cancer cells; settings: mice implanted with H7-O Lewis lung cancer cells; cited from earlier work
leukemia cell lines = settings: cited from earlier work
[13] = system: primary effusion lymphoma (PEL); settings: mice; cited from earlier work
[14] = system: BC and prostate cancer cell lines; settings: cancer cell lines vs normal counterparts; cited from earlier work
MDA-MB-231 BC cells = settings: cited from earlier work
[15] = system: MDA-MB-241 and ZR751 BC cells; settings: cited from earlier work

Sequence of BC resistance protein (BCRP/ABCG2) (Q9UNQ0 whole entry): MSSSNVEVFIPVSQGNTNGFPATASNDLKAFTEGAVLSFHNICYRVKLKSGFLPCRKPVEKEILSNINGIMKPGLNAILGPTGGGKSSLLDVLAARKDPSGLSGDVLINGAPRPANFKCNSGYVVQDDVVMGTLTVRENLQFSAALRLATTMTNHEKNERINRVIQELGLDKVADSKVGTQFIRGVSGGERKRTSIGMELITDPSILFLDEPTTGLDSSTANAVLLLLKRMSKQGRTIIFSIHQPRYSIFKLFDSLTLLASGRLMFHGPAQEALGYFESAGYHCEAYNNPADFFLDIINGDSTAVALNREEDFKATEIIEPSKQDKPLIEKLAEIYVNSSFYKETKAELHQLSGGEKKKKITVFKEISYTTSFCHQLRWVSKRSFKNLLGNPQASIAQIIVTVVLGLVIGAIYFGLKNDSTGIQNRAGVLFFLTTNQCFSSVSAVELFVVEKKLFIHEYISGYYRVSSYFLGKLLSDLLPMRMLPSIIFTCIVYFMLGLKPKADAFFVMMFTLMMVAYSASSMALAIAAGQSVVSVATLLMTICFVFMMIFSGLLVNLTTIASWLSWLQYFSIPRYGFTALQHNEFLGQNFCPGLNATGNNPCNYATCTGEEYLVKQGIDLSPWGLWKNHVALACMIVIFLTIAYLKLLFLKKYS

OC[C@H]1O[C@@H]2O[C@H]3[C@H](O)[C@@H](O)[C@@H](O[C@H]4[C@H](O)[C@@H](O)[C@@H](O[C@H]5[C@H](O)[C@@H](O)[C@@H](O[C@H]6[C@H](O)[C@@H](O)[C@@H](O[C@H]7[C@H](O)[C@@H](O)[C@@H](O[C@H]8[C@H](O)[C@@H](O)[C@@H](O[C@H]1[C@H](O)[C@H]2O)O[C@@H]8CO)O[C@@H]7CO)O[C@@H]6CO)O[C@@H]5CO)O[C@@H]4CO)O[C@@H]3CO [β-cyclodextrin, beta-cyclodextrin]
deaths, daily doses s.c. (rats [1]): no deaths
apoptotic cell death (human keratinocytes): induces caspase-dependent apoptotic cell death
toxicity of Ab1-40/42 (Ab1-40/42): Toxicity of Ab1-40/42 was reduced
Transport across BBB (BBB): 9.3 (1 mM) %
BBB breakdown (BBB): 2.5 mM
acute i.v. toxicity in rats (rats [2]): 1 g/kg
LD50 (rats [3]): 788 mg/kg
reduction of transferrin endocytosis (transferrin endocytosis): 80%
steady-state volume of distribution [4]: corresponds well with the extracellular fluid volume of each species

OC[C@H]1O[C@@H]2O[C@H]3[C@H](O)[C@@H](O)[C@@H](O[C@H]4[C@H](O)[C@@H](O)[C@@H](O[C@H]5[C@H](O)[C@@H](O)[C@@H](O[C@H]6[C@H](O)[C@@H](O)[C@@H](O[C@H]7[C@H](O)[C@@H](O)[C@@H](O[C@H]8[C@H](O)[C@@H](O)[C@@H](O[C@H]9[C@H](O)[C@@H](O)[C@@H](O[C@H]1[C@H](O)[C@H]2O)O[C@@H]9CO)O[C@@H]8CO)O[C@@H]7CO)O[C@@H]6CO)O[C@@H]5CO)O[C@@H]4CO)O[C@@H]3CO [γ-CD, gamma-cyclodextrin]
hemolytic activity (human erythrocytes): β-CD>α-CD>γ-CD

alendronate-β-CD [ALN-β-CD]
effect on bone [5]: bone-anabolic

hydroxypropyl-alpha-cyclodextrin [HPaCD]
cytotoxicity ([6]; Caco-2 cells): less cytotoxic than α-cyclodextrin
average wound closure (MCF-7 cells; 1 mM): 41.33%
wound closure (Percent Closure), replications r1-r3 (MCF-7 cells; 1 mM): 35.00% and 41.00% and 48.00%
average wound closure (MCF-7 cells; 2 mM): 36.00%
wound closure (Percent Closure), replications r1-r3 (MCF-7 cells; 2 mM): 40.00% and 30.00% and 38.00%
average wound closure (MCF-7 cells; 4 mM): 28.67%
wound closure (Percent Closure), replications r1-r3 (MCF-7 cells; 4 mM): 28.00% and 22.00% and 36.00%
average wound closure (MDA-MB-231 cells; 1 mM): 53.00%
wound closure (Percent Closure), replications r1-r3 (MDA-MB-231 cells; 1 mM): 47.00% and 53.00% and 59.00%
average wound closure (MDA-MB-231 cells; 2 mM): 40.00%
wound closure (Percent Closure), replications r1-r3 (MDA-MB-231 cells; 2 mM): 40.00% and 33.00% and 47.00%
average wound closure (MDA-MB-231 cells; 4 mM): 31.67%
wound closure (Percent Closure), replications r1-r3 (MDA-MB-231 cells; 4 mM): 38.00% and 32.00% and 25.00%
Solubility in water [7]: ~500^a g/l
inhibition at 1 mM HPaCD compared with 2 mM HPbCD [8]: superior to inhibition at 2 mM HPbCD
migration versus concentration ([8]; 1-4 mM): migration decreased with higher concentration
effect on migration, HPaCD compared with HPbCD ([8]; all cases): stronger effect on migration than HPbCD
Transport across BBB (BBB): 26.7 (1 mM) %
BBB breakdown (BBB): 2.5 mM

maltosyl-α-cyclodextrin
cytotoxicity [6]: less cytotoxic than α-cyclodextrin

methyl-β-cyclodextrin [MβCD]
accumulation of α-synuclein (α-synuclein): reduced accumulation of α-synuclein
toxicity, invasive vs non-invasive cells (urothelial cancer cells): more toxic for invasive than for non-invasive urothelial cancer cells
endocytosis (MCF7 BC cells): inhibited
migration (MCF7 BC cells): inhibited
invasion activity [9]: suppressed invasion activity
decrease in activity of BCRP/ABCG2 [10]: 40%
RTK-[PIP2]-PI3K-[PIP3]-AKT signaling [11]: interfered with RTK-[PIP2]-PI3K-[PIP3]-AKT signaling
concentration in tumor (mouse model of BC): higher concentration in tumor than in other cells (except kidney and liver)
efficacy in mouse model of BC (mouse model of BC; in vivo): effective
number of lung metastases [12]: reduced the number of lung metastases
growth of leukemia cell lines (leukemia cell lines): inhibited the growth
growth of primary effusion lymphoma [13]: inhibited growth
sensitivity to induced cell death [14]: more sensitive to MβCD-induced cell death than their normal counterparts
internalization of exosomes containing integrins (MDA-MB-231 BC cells): inhibited the internalization of exosomes
spheroid migration and invasion [15]: inhibited
